Measurements reported in PubChem BioAssay (NCI).
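A five-concentration, 48-hour dose response in 96-well plates underlies each endpoint, interpolated linearly between surrounding concentrations. The concentration for full growth arrest is given as TGI.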

Key:
Experiment in all cases: growth of human tumour cells (NCI), 48 h
[1] = system: 786-0 renal
[2] = system: A498 renal
[3] = system: A549 NSCLC
[4] = system: ACHN renal
[5] = system: CCRF-CEM leukemia
[6] = system: COLO 205 colon
[7] = system: DLD-1 colon
[8] = system: DMS 114 small cell lung
[9] = system: DMS 273 small cell lung
[10] = system: EKVX NSCLC
[11] = system: HCC-2998 colon
[12] = system: HCT-116 colon
[13] = system: HCT-15 colon
[14] = system: HL-60(TB) leukemia
[15] = system: HOP-18 NSCLC
[16] = system: HOP-62 NSCLC
[17] = system: HOP-92 NSCLC
[18] = system: HT29 colon
[19] = system: IGROV1 ovarian
[20] = system: K-562 leukemia
[21] = system: KM12 colon
[22] = system: KM20L2 colon
[23] = system: LOX IMVI melanoma
[24] = system: LXFL 529 NSCLC
[25] = system: M14 melanoma
[26] = system: M19-MEL melanoma
[27] = system: MALME-3M melanoma
[28] = system: MOLT-4 leukemia
[29] = system: NCI-H226 lung
[30] = system: NCI-H23 lung
[31] = system: NCI-H522 lung
[32] = system: OVCAR-3 ovarian
[33] = system: OVCAR-4 ovarian
[34] = system: OVCAR-5 ovarian
[35] = system: OVCAR-8 ovarian
[36] = system: RPMI-8226 leukemia
[37] = system: RXF 393 renal
[38] = system: SF-268 CNS
[39] = system: SF-295 CNS
[40] = system: SF-539 CNS
[41] = system: SK-MEL-2 melanoma
[42] = system: SK-MEL-28 melanoma
[43] = system: SK-OV-3 ovarian
[44] = system: SNB-19 CNS
[45] = system: SW-620 colon
[46] = system: TK-10 renal
[47] = system: U251 CNS
[48] = system: UACC-257 melanoma
[49] = system: UACC-62 melanoma
[50] = system: UO-31 renal
[51] = system: XF 498 CNS
[52] = system: CAKI-1 renal
[53] = system: NCI-H460 lung
[54] = system: SK-MEL-5 melanoma
[55] = system: SN12C renal
[56] = system: SNB-75 CNS
[57] = system: SNB-78 CNS
[58] = system: BT-549 breast
[59] = system: DU-145 prostate
[60] = system: HS 578T breast
[61] = system: MCF7 breast
[62] = system: MDA-MB-231 breast
[63] = system: MDA-MB-435
[64] = system: MDA-N
[65] = system: NCI/ADR-RES ovarian
[66] = system: PC-3 prostate
[67] = system: SR leukemia
[68] = system: T-47D breast

`CC(=O)OC(C[C@H](C)[C@@H]1CC[C@]2(C)C3=CCC4C(C)(C)C(=O)CC[C@]4(C)C3CCC12C)C1OC1(C)C` (stereo partly drawn) gave a TGI [1] of 43.2 µM, a TGI [2] of 31.7 µM and a TGI [3] greater than 100 µM. It also gave a TGI [4] of 31.9 µM, a TGI [5] greater than 100 µM and a TGI [6] of 48.3 µM. It also gave a TGI [7] greater than 100 µM, a TGI [8] greater than 100 µM and a TGI [9] of 77.6 µM. For the same compound, the TGI [10] was greater than 100 µM, the TGI [11] was 30.7 µM and the TGI [12] was 94.1 µM. It also gave a TGI [13] greater than 100 µM, a TGI [14] of 29.5 µM and a TGI [15] greater than 100 µM. It also gave a TGI [16] of 42.7 µM, a TGI [17] of 24.3 µM and a TGI [18] of 42.7 µM. It also gave a TGI [19] greater than 100 µM, a TGI [20] greater than 100 µM and a TGI [21] of 47.4 µM. For the same compound, the TGI [22] was greater than 100 µM, the TGI [23] was greater than 100 µM and the TGI [24] was greater than 100 µM. The TGI [25] was 55.4 µM, the TGI [26] was greater than 100 µM and the TGI [27] was 89.2 µM. It also gave a TGI [28] greater than 100 µM, a TGI [29] of 29 µM and a TGI [30] of 86.4 µM. The TGI [31] was 36.5 µM, the TGI [32] was greater than 100 µM and the TGI [33] was greater than 100 µM. For the same compound, the TGI [34] was 31.8 µM, the TGI [35] was greater than 100 µM and the TGI [36] was greater than 100 µM. It also gave a TGI [37] of 28.6 µM, a TGI [38] of 83.2 µM and a TGI [39] greater than 100 µM. The TGI [40] was greater than 100 µM, the TGI [41] was greater than 100 µM and the TGI [42] was 88.2 µM. The TGI [43] was 25.7 µM, the TGI [44] was greater than 100 µM and the TGI [45] was greater than 100 µM. The TGI [46] was 35.4 µM, the TGI [47] was 66.8 µM and the TGI [48] was 75.1 µM. The TGI [49] was greater than 100 µM, the TGI [50] was 25.8 µM and the TGI [51] was 43.8 µM.

`O=C(OCCO)C1CC2CC1C1(C2)OCCO1` (stereo not drawn) was tested, and the TGI [1] was greater than 100 µM, the TGI [2] was greater than 100 µM and the TGI [3] was greater than 100 µM. The TGI [4] was greater than 100 µM, the TGI [52] was greater than 100 µM and the TGI [5] was greater than 100 µM. It also gave a TGI [6] greater than 100 µM, a TGI [7] greater than 100 µM and a TGI [8] greater than 100 µM. It also gave a TGI [9] greater than 100 µM, a TGI [10] greater than 100 µM and a TGI [12] greater than 100 µM. The TGI [14] was greater than 100 µM, the TGI [15] was greater than 100 µM and the TGI [16] was greater than 100 µM. The TGI [17] was greater than 100 µM, the TGI [18] was greater than 100 µM and the TGI [19] was greater than 100 µM. For the same compound, the TGI [20] was greater than 100 µM, the TGI [21] was greater than 100 µM and the TGI [22] was greater than 100 µM. For the same compound, the TGI [23] was greater than 100 µM, the TGI [24] was greater than 100 µM and the TGI [25] was greater than 100 µM. The TGI [26] was greater than 100 µM, the TGI [27] was greater than 100 µM and the TGI [28] was greater than 100 µM. For the same compound, the TGI [29] was greater than 100 µM, the TGI [30] was greater than 100 µM and the TGI [53] was greater than 100 µM. The TGI [31] was greater than 100 µM, the TGI [32] was greater than 100 µM and the TGI [33] was greater than 100 µM. For the same compound, the TGI [34] was greater than 100 µM, the TGI [35] was greater than 100 µM and the TGI [36] was greater than 100 µM. It also gave a TGI [37] greater than 100 µM, a TGI [38] greater than 100 µM and a TGI [39] greater than 100 µM. For the same compound, the TGI [40] was greater than 100 µM, the TGI [41] was greater than 100 µM and the TGI [42] was greater than 100 µM. It also gave a TGI [54] greater than 100 µM, a TGI [43] greater than 100 µM and a TGI [55] greater than 100 µM. For the same compound, the TGI [44] was greater than 100 µM, the TGI [56] was greater than 100 µM and the TGI [57] was greater than 100 µM. The TGI [45] was greater than 100 µM, the TGI [46] was greater than 100 µM and the TGI [47] was greater than 100 µM. It also gave a TGI [48] greater than 100 µM, a TGI [49] greater than 100 µM and a TGI [50] greater than 100 µM. The TGI [51] was greater than 100 µM.

In the case of `COc1ccc(/C=c2/s/c(=C(\C#N)c3nc4ccccc4[nH]3)n(-c3ccccc3)c2=O)cc1`, the TGI [1] is reported as greater than 42.1 µM, the TGI [2] is reported as greater than 76.5 µM and the TGI [3] is reported as greater than 100 µM. The TGI [4] was greater than 100 µM, the TGI [58] was 54.8 µM and the TGI [52] was greater than 100 µM. The TGI [5] was greater than 100 µM, the TGI [6] was greater than 100 µM and the TGI [7] was greater than 100 µM. It also gave a TGI [8] greater than 100 µM, a TGI [9] greater than 100 µM and a TGI [59] greater than 100 µM. For the same compound, the TGI [10] was greater than 100 µM, the TGI [11] was greater than 100 µM and the TGI [12] was greater than 55.7 µM. The TGI [13] was greater than 100 µM, the TGI [14] was greater than 100 µM and the TGI [15] was 79 µM. It also gave a TGI [16] greater than 54 µM, a TGI [17] of 37.7 µM and a TGI [60] of 22.4 µM. The TGI [18] was 24.7 µM, the TGI [19] was greater than 100 µM and the TGI [20] was greater than 100 µM. The TGI [21] was greater than 100 µM, the TGI [22] was greater than 100 µM and the TGI [23] was greater than 100 µM. It also gave a TGI [24] greater than 100 µM, a TGI [25] greater than 100 µM and a TGI [26] greater than 100 µM. For the same compound, the TGI [27] was greater than 88.6 µM, the TGI [61] was greater than 100 µM and the TGI [62] was 49.5 µM. For the same compound, the TGI [63] was greater than 100 µM, the TGI [64] was greater than 100 µM and the TGI [28] was greater than 100 µM. It also gave a TGI [29] of 92.7 µM, a TGI [30] greater than 63.5 µM and a TGI [53] greater than 74.9 µM. For the same compound, the TGI [31] was greater than 100 µM, the TGI [65] was 20.3 µM and the TGI [32] was greater than 75.3 µM. The TGI [33] was 28.1 µM, the TGI [34] was greater than 100 µM and the TGI [35] was 51 µM. It also gave a TGI [66] of 67.3 µM, a TGI [36] greater than 100 µM and a TGI [37] greater than 100 µM. For the same compound, the TGI [38] was greater than 100 µM, the TGI [39] was greater than 100 µM and the TGI [40] was greater than 61.5 µM. It also gave a TGI [41] greater than 100 µM, a TGI [42] greater than 100 µM and a TGI [54] greater than 100 µM. It also gave a TGI [43] of 71.6 µM, a TGI [55] greater than 100 µM and a TGI [44] greater than 100 µM. The TGI [56] was greater than 68.8 µM, the TGI [67] was greater than 100 µM and the TGI [45] was greater than 58.9 µM. It also gave a TGI [68] greater than 100 µM, a TGI [46] greater than 100 µM and a TGI [47] greater than 100 µM. For the same compound, the TGI [48] was greater than 100 µM, the TGI [49] was greater than 47.5 µM and the TGI [50] was greater than 100 µM. For the same compound, the TGI [51] was 88.6 µM.
